US20230150974A1 (Foghorn Therapeutics Inc., priority 2020, published 2023)

What was measured:
[1] = biological target: T1, HiBiT-BRM (Homo sapiens, UniProt P51531); experiment: HiBiT-BRM cell-based degradation assay (Nano-Glo HiBiT Lytic Detection); details: HeLa cells expressing HiBiT-BRM, 24 h; for DC50: read-out: BRM HiBit Degradation IC50
T1 construct: expressed in transfected cells
Summary of the method: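 Luminescence from HiBiT–LgBiT complementation in lysates of a stable HiBiT-BRM HeLa line measured after 24 h compound exposure. Degradation expressed as percent relative to DMSO-treated cells and cells given 2 μM of a known BRM/BRG1 degrader.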

[2] = biological target: T2, HiBit-BRG1 (Homo sapiens, UniProt P51532); experiment: HiBit-BRG1 cell-based degradation assay (Nano-Glo HiBiT Lytic Detection); details: HeLa cells expressing HiBit-BRG1 and LgBit, 24 h; for DC50: read-out: BRG1 HiBit Degradation IC50; for Dmax: read-out: BRG1 HiBit Degradation Maximum (%)
T2 construct: expressed in transfected cells
T2 sequence (P51532 whole entry): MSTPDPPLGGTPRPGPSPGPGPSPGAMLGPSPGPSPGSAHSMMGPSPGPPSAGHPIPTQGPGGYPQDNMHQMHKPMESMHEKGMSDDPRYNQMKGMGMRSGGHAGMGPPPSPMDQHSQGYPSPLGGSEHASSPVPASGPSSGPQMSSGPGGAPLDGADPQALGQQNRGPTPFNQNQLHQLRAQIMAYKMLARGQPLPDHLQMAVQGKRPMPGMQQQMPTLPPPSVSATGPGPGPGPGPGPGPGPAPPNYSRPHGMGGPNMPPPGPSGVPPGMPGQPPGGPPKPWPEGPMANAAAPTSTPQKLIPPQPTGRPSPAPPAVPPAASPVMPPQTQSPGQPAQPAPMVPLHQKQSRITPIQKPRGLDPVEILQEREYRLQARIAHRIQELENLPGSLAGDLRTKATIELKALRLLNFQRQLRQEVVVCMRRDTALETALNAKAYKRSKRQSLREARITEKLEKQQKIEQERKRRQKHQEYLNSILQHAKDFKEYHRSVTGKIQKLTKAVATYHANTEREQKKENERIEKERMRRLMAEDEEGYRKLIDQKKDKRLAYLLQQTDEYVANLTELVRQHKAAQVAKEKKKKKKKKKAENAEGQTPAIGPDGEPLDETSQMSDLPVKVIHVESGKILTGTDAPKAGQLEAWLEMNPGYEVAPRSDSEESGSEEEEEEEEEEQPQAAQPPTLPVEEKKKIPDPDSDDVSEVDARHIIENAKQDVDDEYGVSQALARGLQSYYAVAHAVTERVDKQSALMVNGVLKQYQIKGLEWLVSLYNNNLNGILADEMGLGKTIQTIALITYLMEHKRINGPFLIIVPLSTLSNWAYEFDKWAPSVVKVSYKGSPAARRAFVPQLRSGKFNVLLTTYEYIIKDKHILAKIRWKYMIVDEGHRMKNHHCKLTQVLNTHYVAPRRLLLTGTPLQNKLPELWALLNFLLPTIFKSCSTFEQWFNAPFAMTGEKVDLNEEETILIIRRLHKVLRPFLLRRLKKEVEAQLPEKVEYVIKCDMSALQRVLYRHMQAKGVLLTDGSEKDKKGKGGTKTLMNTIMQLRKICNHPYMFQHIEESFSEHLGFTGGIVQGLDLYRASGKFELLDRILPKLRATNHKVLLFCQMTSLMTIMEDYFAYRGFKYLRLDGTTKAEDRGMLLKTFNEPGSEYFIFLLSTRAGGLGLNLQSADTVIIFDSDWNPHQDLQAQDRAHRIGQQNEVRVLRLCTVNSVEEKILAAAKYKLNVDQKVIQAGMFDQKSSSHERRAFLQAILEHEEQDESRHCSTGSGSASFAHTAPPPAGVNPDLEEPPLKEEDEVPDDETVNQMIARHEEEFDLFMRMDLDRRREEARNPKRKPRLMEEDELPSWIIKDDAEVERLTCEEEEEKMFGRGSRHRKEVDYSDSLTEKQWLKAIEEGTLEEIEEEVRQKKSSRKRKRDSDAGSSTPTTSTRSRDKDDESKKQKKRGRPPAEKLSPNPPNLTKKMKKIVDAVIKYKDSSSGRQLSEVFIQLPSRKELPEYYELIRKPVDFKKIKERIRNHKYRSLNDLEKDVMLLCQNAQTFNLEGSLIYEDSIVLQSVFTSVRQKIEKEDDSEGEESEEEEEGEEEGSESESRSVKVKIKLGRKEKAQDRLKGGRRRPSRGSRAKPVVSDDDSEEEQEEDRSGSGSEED
Summary of the method: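 Luminescence from reconstituted NanoBiT luciferase after lytic detection served as read-out of remaining HiBit-BRG1 in stable HeLa cells, which also express LgBit. Cells were seeded at 5000 per well and incubated with compound for 24 h. DMSO and a 2 μM known degrader defined the control range.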

T1 sequence (P51531 whole entry): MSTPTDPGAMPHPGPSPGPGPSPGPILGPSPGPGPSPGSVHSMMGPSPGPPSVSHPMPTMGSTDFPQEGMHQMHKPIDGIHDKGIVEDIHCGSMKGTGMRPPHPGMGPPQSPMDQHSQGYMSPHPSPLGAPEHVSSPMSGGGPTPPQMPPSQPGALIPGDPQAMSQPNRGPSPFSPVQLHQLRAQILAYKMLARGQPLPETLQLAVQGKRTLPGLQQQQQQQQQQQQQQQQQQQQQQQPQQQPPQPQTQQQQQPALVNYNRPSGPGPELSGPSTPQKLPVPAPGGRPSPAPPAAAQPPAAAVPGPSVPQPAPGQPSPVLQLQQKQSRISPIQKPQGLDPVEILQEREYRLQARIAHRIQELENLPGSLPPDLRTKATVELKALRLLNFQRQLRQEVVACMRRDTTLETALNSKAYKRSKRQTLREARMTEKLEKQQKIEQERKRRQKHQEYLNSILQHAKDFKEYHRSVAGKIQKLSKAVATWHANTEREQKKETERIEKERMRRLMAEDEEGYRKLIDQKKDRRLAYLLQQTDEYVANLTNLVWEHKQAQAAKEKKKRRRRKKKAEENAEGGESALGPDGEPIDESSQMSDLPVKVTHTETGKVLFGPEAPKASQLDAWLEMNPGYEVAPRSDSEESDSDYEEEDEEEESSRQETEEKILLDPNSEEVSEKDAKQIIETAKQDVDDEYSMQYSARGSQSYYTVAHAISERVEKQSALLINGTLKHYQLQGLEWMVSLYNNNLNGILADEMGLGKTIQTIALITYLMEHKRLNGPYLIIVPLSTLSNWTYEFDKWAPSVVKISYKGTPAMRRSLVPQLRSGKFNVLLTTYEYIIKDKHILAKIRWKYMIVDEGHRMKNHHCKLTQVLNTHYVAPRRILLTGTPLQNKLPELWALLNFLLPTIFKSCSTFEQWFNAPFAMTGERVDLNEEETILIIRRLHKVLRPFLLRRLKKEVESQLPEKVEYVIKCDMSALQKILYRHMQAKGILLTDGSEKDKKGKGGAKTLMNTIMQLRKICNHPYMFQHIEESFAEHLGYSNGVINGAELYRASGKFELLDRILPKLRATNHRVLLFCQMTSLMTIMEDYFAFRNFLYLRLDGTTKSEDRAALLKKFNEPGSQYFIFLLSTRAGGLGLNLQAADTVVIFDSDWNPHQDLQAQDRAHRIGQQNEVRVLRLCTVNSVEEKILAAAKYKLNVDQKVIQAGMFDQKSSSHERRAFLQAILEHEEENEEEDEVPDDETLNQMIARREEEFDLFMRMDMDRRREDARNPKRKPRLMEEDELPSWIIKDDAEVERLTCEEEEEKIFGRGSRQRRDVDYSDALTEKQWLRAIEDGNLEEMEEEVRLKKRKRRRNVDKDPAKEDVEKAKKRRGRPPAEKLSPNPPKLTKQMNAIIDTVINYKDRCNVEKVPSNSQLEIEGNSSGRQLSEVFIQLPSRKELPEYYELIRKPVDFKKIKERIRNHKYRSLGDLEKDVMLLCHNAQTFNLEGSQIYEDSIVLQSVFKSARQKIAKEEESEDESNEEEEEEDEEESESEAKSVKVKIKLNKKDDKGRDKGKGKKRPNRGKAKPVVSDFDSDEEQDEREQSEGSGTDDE

Cc1ncsc1-c1ccc(CNC(=O)[C@@H]2C[C@@H](O)CN2C(=O)[C@@H](NC(=O)CCN2CC(C3CCN(C(=O)c4ccc(CCOc5cc(-c6ccccc6O)nnc5N)cc4)CC3)C2)C(C)(C)C)cc1 [Compound 199, (2S,4R)-1-((S)-2-(3-(3-(1-(4-(2-((3-amino-6-(2-hydroxyphenyl)pyridazin-4-yl)oxy)ethyl)benzoyl)piperidin-4-yl)azetidin-1-yl)propanamido)-3,3-dimethylbutanoyl)-4-hydroxy-N-(4-(4-methylthiazol-5-yl)benzyl)pyrrolidine-2-carboxamide]
BRM HiBit Degradation Maximum (%) [1]: C (“C” indicates maximum degradation <50%)
DC50 [1]: > 1000 nM
DC50 [2]: > 1000 nM
Dmax [2]: < 50%

Cc1ncsc1-c1ccc(CNC(=O)[C@@H]2C[C@@H](O)CN2C(=O)[C@@H](NC(=O)CCN2CC3(C2)CN(C(=O)c2ccc(CCOc4cc(-c5ccccc5O)nnc4N)cc2)C3)C(C)(C)C)cc1 [Compound 200, (2S,4R)-1-((S)-2-(3-(6-(4-(2-((3-amino-6-(2-hydroxyphenyl)pyridazin-4-yl)oxy)ethyl)benzoyl)-2,6-diazaspiro[3.3]heptan-2-yl)propanamido)-3,3-dimethylbutanoyl)-4-hydroxy-N-(4-(4-methylthiazol-5-yl)benzyl)pyrrolidine-2-carboxamide]
BRM HiBit Degradation Maximum (%) [1]: C (“C” indicates maximum degradation <50%)
DC50 [1]: > 1000 nM
DC50 [2]: > 1000 nM
Dmax [2]: < 50%

Cc1ncsc1-c1ccc(CNC(=O)[C@@H]2C[C@@H](O)CN2C(=O)[C@@H](NC(=O)CCCCCCCCCNC(=O)c2ccc(CCOc3cc(-c4ccccc4O)nnc3N)cc2)C(C)(C)C)cc1 [Compound 47, (2S,4R)-1-[(2S)-2-(10-[[4-(2-[[3-amino-6-(2-hydroxyphenyl)pyridazin-4-yl]oxy]ethyl)phenyl]formamido]decanamido)-3,3-dimethylbutanoyl]-4-hydroxy-N-[[4-(4-methyl-1,3-thiazol-5-yl)phenyl]methyl]pyrrolidine-2-carboxamide]
BRM HiBit Degradation Maximum (%) [1]: B (“B” indicates maximum degradation ≥50%)
DC50 [1]: > 100 nM
DC50 [2]: > 1000 nM
Dmax [2]: < 50%

Cc1ncsc1-c1ccc([C@H](C)NC(=O)[C@@H]2C[C@@H](O)CN2C(=O)[C@@H](c2cc(OCCN3CCN(CC(=O)NCc4ccc(CCOc5cc(-c6ccccc6O)nnc5N)cc4)CC3)no2)C(C)C)cc1 [Compound 174, (2S,4R)-1-((R)-2-(3-(2-(4-(2-((4-(2-((3-amino-6-(2-hydroxyphenyl)pyridazin-4-yl)oxy)ethyl)benzyl)amino)-2-oxoethyl)piperazin-1-yl)ethoxy)isoxazol-5-yl)-3-methylbutanoyl)-4-hydroxy-N-((S)-1-(4-(4-methylthiazol-5-yl)phenyl)ethyl)pyrrolidine-2-carboxamide]
BRM HiBit Degradation Maximum (%) [1]: A (“A” indicates maximum degradation ≥75%)
DC50 [1]: > 10 nM
DC50 [2]: > 100 nM
Dmax [2]: > 75%

Cc1ncsc1-c1ccc([C@H](C)NC(=O)[C@@H]2C[C@@H](O)CN2C(=O)[C@@H](NC(=O)CCCCCCCCCCCCCCC(=O)N(C)Cc2ccc(CCOc3cc(-c4ccccc4O)nnc3N)cc2)C(C)(C)C)cc1 [Compound 215, N1-(4-(2-((3-amino-6-(2-hydroxyphenyl)pyridazin-4-yl)oxy)ethyl)benzyl)-N16-((S)-1-((2S,4R)-4-hydroxy-2-(((S)-1-(4-(4-methylthiazol-5-yl)phenyl)ethyl)carbamoyl)pyrrolidin-1-yl)-3,3-dimethyl-1-oxobutan-2-yl)-N1-methylhexadecanediamide]
BRM HiBit Degradation Maximum (%) [1]: A (“A” indicates maximum degradation ≥75%)
DC50 [1]: > 10 nM
DC50 [2]: > 1000 nM
Dmax [2]: < 50%

Cc1ncsc1-c1ccc(CNC(=O)[C@@H]2C[C@@H](O)CN2C(=O)[C@@H](NC(=O)CCN2CC3CN(C(=O)c4ccc(CCOc5cc(-c6ccccc6O)nnc5N)cc4)CC32)C(C)(C)C)cc1 (stereo partly drawn) [Compound 231, (2S,4R)-1-((2S)-2-(3-(3-(4-(2-((3-amino-6-(2-hydroxyphenyl)pyridazin-4-yl)oxy)ethyl)benzoyl)-3,6-diazabicyclo[3.2.0]heptan-6-yl)propanamido)-3,3-dimethylbutanoyl)-4-hydroxy-N-(4-(4-methylthiazol-5-yl)benzyl)pyrrolidine-2-carboxamide]
BRM HiBit Degradation Maximum (%) [1]: C (“C” indicates maximum degradation <50%)
DC50 [1]: > 1000 nM
DC50 [2]: > 1000 nM
Dmax [2]: < 50%

Cc1ncsc1-c1ccc(CNC(=O)[C@@H]2C[C@@H](O)CN2C(=O)[C@@H](NC(=O)CCCCCCCCCCCCCCCC(=O)NCc2ccc(CCNc3cc(-c4ccccc4O)nnc3N)cc2)C(C)(C)C)cc1 [Compound 136, N′-[[4-(2-[[3-amino-6-(2-hydroxyphenyl)pyridazin-4-yl]amino]ethyl)phenyl]methyl]-N-[(2S)-1-[(2S,4R)-4-hydroxy-2-([[4-(4-methyl-1,3-thiazol-5-yl)phenyl]methyl]carbamoyl)pyrrolidin-1-yl]-3,3-dimethyl-1-oxobutan-2-yl]heptadecanediamide]
BRM HiBit Degradation Maximum (%) [1]: B (“B” indicates maximum degradation ≥50%)
DC50 [1]: > 100 nM
DC50 [2]: > 1000 nM
Dmax [2]: < 50%

Nc1nnc(-c2ccccc2O)cc1N1CCN(CC(=O)NCCCCCCCCNc2ccc3c(c2)C(=O)N(C2CCC(=O)NC2=O)C3=O)CC1 (centres unmarked) [Compound 83, 2-[4-[3-amino-6-(2-hydroxyphenyl)pyridazin-4-yl]piperazin-1-yl]-N-(8-[[2-(2,6-dioxopiperidin-3-yl)-1,3-dioxoisoindol-5-yl]amino]octyl)acetamide]
BRM HiBit Degradation Maximum (%) [1]: B (“B” indicates maximum degradation ≥50%)
DC50 [1]: > 100 nM
DC50 [2]: > 1000 nM
Dmax [2]: < 50%

Nc1nnc(-c2ccccc2O)cc1OCCc1ccc(C(=O)NCCN2CCN(c3cccc4c3C(=O)N(C3CCC(=O)NC3=O)C4=O)CC2)cc1 (centres unmarked) [Compound 149, 4-(2-((3-amino-6-(2-hydroxyphenyl)pyridazin-4-yl)oxy)ethyl)-N-(2-(4-(2-(2,6-dioxopiperidin-3-yl)-1,3-dioxoisoindolin-4-yl)piperazin-1-yl)ethyl)benzamide]
BRM HiBit Degradation Maximum (%) [1]: A (“A” indicates maximum degradation ≥75%)
DC50 [1]: > 100 nM
DC50 [2]: > 100 nM
Dmax [2]: > 50%

Nc1nnc(-c2ccccc2O)cc1OCCc1ccc(CNC(=O)CCCCCOc2cccc3c2C(=O)N(C2CCC(=O)NC2=O)C3=O)cc1 (centres unmarked) [Compound 63, N-[[4-(2-[[3-amino-6-(2-hydroxyphenyl)pyridazin-4-yl]oxy]ethyl)phenyl]methyl]-6-[[2-(2,6-dioxopiperidin-3-yl)-1,3-dioxoisoindol-4-yl]oxy]hexanamide]
BRM HiBit Degradation Maximum (%) [1]: B (“B” indicates maximum degradation ≥50%)
DC50 [1]: > 100 nM
DC50 [2]: > 1000 nM
Dmax [2]: < 50%

Cc1ncsc1-c1ccc(CNC(=O)[C@@H]2C[C@@H](O)CN2C(=O)[C@@H](NC(=O)CCN2CCC(C3CN(C(=O)c4ccc(CCOc5cc(-c6ccccc6O)nnc5N)cc4)C3)CC2)C(C)(C)C)cc1 [Compound 204, (2S,4R)-1-((S)-2-(3-(4-(1-(4-(2-((3-amino-6-(2-hydroxyphenyl)pyridazin-4-yl)oxy)ethyl)benzoyl)azetidin-3-yl)piperidin-1-yl)propanamido)-3,3-dimethylbutanoyl)-4-hydroxy-N-(4-(4-methylthiazol-5-yl)benzyl)pyrrolidine-2-carboxamide]
BRM HiBit Degradation Maximum (%) [1]: B (“B” indicates maximum degradation ≥50%)
DC50 [1]: > 1000 nM
DC50 [2]: > 1000 nM
Dmax [2]: < 50%

Cc1nc2cccc(NCCOCCOCCNC(=O)c3ccc(CCOc4cc(-c5ccccc5O)nnc4N)cc3)c2c(=O)n1C1CCC(=O)NC1=O (centres unmarked) [Compound 48, 4-(2-[[3-amino-6-(2-hydroxyphenyl)pyridazin-4-yl]oxy]ethyl)-N-[2-[2-(2-[[3-(2,6-dioxopiperidin-3-yl)-2-methyl-4-oxoquinazolin-5-yl]amino]ethoxy)ethoxy]ethyl]benzamide]
BRM HiBit Degradation Maximum (%) [1]: C (“C” indicates maximum degradation <50%)
DC50 [1]: > 1000 nM
DC50 [2]: > 1000 nM
Dmax [2]: < 50%

Cc1ncsc1-c1ccc(CNC(=O)[C@@H]2C[C@@H](O)CN2C(=O)[C@@H](NC(=O)CCCCCCCCCCCCCC(=O)N(C)Cc2ccc(CCOc3cc(-c4ccccc4O)nnc3N)cc2)C(C)(C)C)cc1 [Compound 159, N1-(4-(2-((3-amino-6-(2-hydroxyphenyl)pyridazin-4-yl)oxy)ethyl)benzyl)-N15-((S)-1-((2S,4R)-4-hydroxy-2-((4-(4-methylthiazol-5-yl)benzyl)carbamoyl)pyrrolidin-1-yl)-3,3-dimethyl-1-oxobutan-2-yl)-N1-methylpentadecanediamide]
BRM HiBit Degradation Maximum (%) [1]: A (“A” indicates maximum degradation ≥75%)
DC50 [1]: > 10 nM
DC50 [2]: > 1000 nM
Dmax [2]: < 50%

Cc1ncsc1-c1ccc([C@H](C)NC(=O)[C@@H]2C[C@@H](O)CN2C(=O)[C@@H](c2cc(OCCN3CCC(CC(=O)NCc4ccc(CCOc5cc(-c6ccccc6O)nnc5N)cc4)CC3)no2)C(C)C)cc1 [Compound 177, (2S,4R)-1-((R)-2-(3-(2-(4-(2-((4-(2-((3-amino-6-(2-hydroxyphenyl)pyridazin-4-yl)oxy)ethyl)benzyl)amino)-2-oxoethyl)piperidin-1-yl)ethoxy)isoxazol-5-yl)-3-methylbutanoyl)-4-hydroxy-N-((S)-1-(4-(4-methylthiazol-5-yl)phenyl)ethyl)pyrrolidine-2-carboxamide]
BRM HiBit Degradation Maximum (%) [1]: A (“A” indicates maximum degradation ≥75%)
DC50 [1]: > 100 nM
DC50 [2]: > 1000 nM
Dmax [2]: > 75%
